Assay results from patent US5945407A, “Methods and compositions using butyrate esters of threitol” (Vertex Pharmaceuticals, Incorporated, priority 1998, dated 1999).

Columns and labels:
[1] = tested on: tumor and leukemia in mice; conditions: cited from earlier work
[2] = tested on: Cultured Erythroleukemic Cells; conditions: in vitro; cited from earlier work
[3] = tested on: leukemia patients; conditions: by inducing cell differentiation; cited from earlier work
[4] = in vitro; conditions: cell culture
[5] = Oral bioavailability and sustenance of plasma concentrations of butyric acid in rats after oral gavage; format: in vivo, rats (Sprague Dawley); conditions: rat; for AUC: butyric acid in plasma, oral gavage, mean ± SD
Method: We evaluated oral bioavailability and sustenance of plasma concentrations of butyric acid in rats receiving tetrabutyrate esters of threitol and tributyrin by oral gavage.
This assay was carried out according to the protocol described in Daniel et al., Clinca Chimica Acta., 181, pp. 255-64 (1989); Planchon et al., J. Pharm. Sci., 82, pp. 1046-48 (1993); Pouillart et al., J. Pharm Sci., 81, pp. 241-44 (1992). Each compound was tested in five to six rats (Sprague Dawley; Harlan Labs, Inc.) weighing approximately 300 grams each. In that table, data are expressed as mean ± standard deviation (range) and were compared using the unpaired Student's t-test.

[6] = tested on: fetal hemoglobin; conditions: sickle cell anemia patients; cited from earlier work
[7] = leukemia patients; continuous infusions of sodium butyrate; cited from earlier work
[8] = Pharmacokinetic variability of serum butyrate (standard deviation of a parameter such as Cmax or AUC divided by its mean); format: in vivo
From the text: Pharmacokinetic variability is the measure of differences in the serum butyrate concentrations between different patients administered the same amount of butyrate esters of threitol. Pharmacokinetic variability is quantified by dividing the standard deviation for a given parameter, such as Cmax or AUC, by the mean value of that parameter, in a series of patients given dose the same dosage of butyrate ester of threitol.

In the case of `CCCC(=O)O` [arginine butyrate], the “anti-tumor and anti-leukemia effects” value [1] is given as “anti-tumor and anti-leukemia effects”.

In the case of `CCCC(=O)O` [butyric acid], the cell differentiation [2] is listed as “induces cell differentiation”, the “effect in leukemia patients” value [3] is listed as “promising effects” and the MCC [4] is listed as over 3 mM.

With `CCCC(=O)OC[C@@H](OC(=O)CCC)[C@@H](COC(=O)CCC)OC(=O)CCC` [d-threitol tetrabutyrate ester] the AUC ([5]; 2.8 gm/kg) was 900 ± 260 µM·h.

In the case of `NC(=O)NO` [hydroxyurea], the fetal hemoglobin production [6] is given as “stimulates fetal hemoglobin production” and the sickling crisis [6] is given as “reduces sickling crisis”.

With `CCCC(=O)OC[C@H](OC(=O)CCC)[C@H](COC(=O)CCC)OC(=O)CCC` [l-threitol tetrabutyrate ester] the AUC ([5]; 2.4 gm/kg) was 1200 ± 400 µM·h.

In the case of `CCCC(=O)[O-].[Na+]` [sodium butyrate], the “plasma half-life of butyric acid” value [7] is listed as 6 min.

In the case of `CCCC(=O)OC[C@H](OC(=O)CCC)[C@@H](COC(=O)CCC)OC(=O)CCC` [tetrabutyrate ester of mesothreitol], the pharmacokinetic variability ([8]; in vivo) is reported as 35-40%.

For `CCCC(=O)OCC(COC(=O)CCC)OC(=O)CCC` [tributyrin], the AUC ([5]; 3.0 gm/kg) was 1590 ± 930 µM·h, the “oral bioavailability (to provide therapeutic plasma levels of butyric acid)” value ([5]; oral) was “orally bioavailable” and the “variability of release of butyric acid in vivo” value ([5]; oral, tetrabutyrate esters of threitol vs tributyrin) was “more variable”. It also gave a pharmacokinetic variability ([8]; standard deviation / mean of a parameter such as Cmax or AUC) of 70%.
